Common to all, as to assay type: cell-based, human
One experiment deals with A549 spheroids. The experiment can be described thus: Spheroid assay, radiosensitizing effect. The method, then:
(§1) The NSCLC cell lines A549 and SW1573 were plated in low attachment 24 well plates (Corning Incorporated, Corning, N.Y.) at a density of 100,000 cells/well and allowed to form spheroids. After three days, single spheroids were transferred to new 24 well low attachment plates (one spheroid/well). Immediately after transfer treatment was started, for A549 and SW1573 cells 1 μM RX-3117 was combined with fractionated 2 Gy irradiation (5 days single 2 Gy dose). Pictures were taken on day 0 (before irradiation) and after 3, 6, 9, and 15 days using a phase contrast microscope (LeicaDMI300B Universal Grab 6.3 software, Digital Cell Imaging Labs). The measurements were taken by ImageJ software (ImageJ 1.45s, Wayne Rasband, National Institutes of Health, Bethesda, Md.) for spheroid volume calculation (V=4/3π(D/2)^3) as described earlier by Galvani et al. (Galvani E, Giovannetti E, Saccani F, Cavazzoni A, Leon L G, Dekker H, Alfieri R, Carmi C, Mor M, Ardizzoni A, Petronini P G and Peters G J: Molecular mechanisms underlying the antitumor activity of 3-aminopropanamide irreversible inhibitors of the epidermal growth factor receptor in non-small cell lung cancer. Neoplasia 15: 61-72, 2013).

The subject of another experiment is SW1573 spheroids. The experiment can be described thus: Spheroid assay, radiosensitizing effect. The following applies: SW1573 spheres. Here is the method: as §1
A further experiment has as its system A2780 cells. As to the kind of experiment: Protein expression by western blot. Particulars: A2780, 0.1 μM to 10 μM, 48 h. The method, then: The influence of RX-3117 on protein expression during different treatment conditions was analyzed by western blot. Cells were lysed using 1× cell lysis buffer (Cell Signaling, Danvers, Mass., USA) containing 4% protease inhibitor cocktail (Roche Diagnostics, Mannheim, Germany) on ice for 30 minutes and centrifuged for 10 minutes at 4° C. at 14,000 rpm. Bio-Rad assay was performed to determine protein amount in the collected supernatant as described earlier (Lemos C, Kathmann I, Giovannetti E, Calhau C, Jansen G and Peters G J: Impact of cellular folate status and epidermal growth factor receptor expression on BCRP/ABCG2-mediated resistance to gefitinib and erlotinib. Br J Cancer 100: 1120-7, 2009). The following antibodies were used for protein expression: γH2A.X (cat#9718, Cell Signaling, 1:1000), β-actin (Sigma, 1:10,000), Cdc25C Ser216 (cat#4901, Cell Signaling, 1:1000), Cdk1 Tyr15 (cat#9111, Cell Signaling, 1:1000), […] (cat#2197S, Cell Signaling, 1:1000), Histone 3 (cat#4499, Cell Signaling). Antibodies were diluted in 1:1 solution with Rockland buffer (Rockland Inc, Philadelphia, Pa.) and phosphate buffered saline (PBS) supplemented with 0.05 Tween 20. Proteins were separated in 20% SDS-PAGE gel and transferred to polyvinylidene difluoride (PVDF) membrane. […] Proteins were detected by an Odyssey InfraRed Imager (Li-COR Bioscience, Lincoln, Nebr.).
A general note: Immunoblotting shows a protein as a band on a membrane.

The next experiment has as its system DNMT1. As to the kind of experiment: DNMT enzyme activity in isolated nuclei (DNA methyltransferase assay kit). The following applies: A2780 nuclear extracts, 1 μM, 24 hr. The method, then:
DNMT1 protein expression was measured by Western Blotting after exposure to RX-3117 for 24 or 48 hr. DNMT1 RNA expression was measured by real-time PCR after 24 and 48 hr exposure to RX-3117. DNMT enzyme activity was measured in isolated nuclei after exposure 1 μM RX-3117 or 5 μM aza-CdR using a DNA methyltransferase assay kit provided by EpiGentek using the ability of a CpG dinding domain to bind to methylated DNA. In A549 cells the effect of 5 μM RX-3117 on overall methylation was measured with a specific antibody against 5-methyl-cytosine. Bands on Western blots were visualized using appropriate InfraRedDye using an Odyssey InfraRed imager.

The text below walks through data of patent publication US10278971B2, “Fluorocyclopentenylcytosine methods of use” (Rexahn Pharmaceuticals, Inc., priority 2015, dated 2019).

For `Nc1ccn([C@@H]2C(F)=C(CO)[C@@H](O)[C@H]2O)c(=O)n1` [RX-3117, 4-amino-1-((1S,4R,5S)-2-fluoro-4,5-dihydroxy-3-hydroxymethyl-cyclopent-2-enyl)-1H-pyrimidin-2-one], in the experiment on A549 spheroids (A549, 1 μM plus 5 days irradiation with 2 Gy), the “spheroid volume growth, combination with irradiation” value is given as “enhanced the effect”. The “spheroid volume growth, RX-3117 alone” value in the experiment on A549 spheroids (A549, 1 μM, 15 days) is on record as “only a small effect”. Also, the “spheroid volume, combination with radiotherapy” value with SW1573 spheroids (1 μM plus 2 Gy 5 days) was “the effect was enhanced with the combination”. Moreover, the “spheroid volume, RX-3117 alone” value with SW1573 spheroids (1 μM, 15 days) was “highly affected”. Moreover, in the experiment with A2780 cells, the “γH2A.X S139 induction” value was “induction of γH2A.X S139 in a dose dependent manner”. The “inhibition of DNMT1 activity” value with DNMT1 was determined as 32%.
